Measured values taken from paper PMC2423925, “Pharmacokinetics of Octreotide in Patients With Cirrhosis and Portal Hypertension; Relationship Between the Plasma Levels of the Analogue and the Magnitude and Duration of the Reduction in Corrected Wedged Hepatic Venous Pressure” (HPB Surgery, 1998).

Experiments:
[1] = Plasma octreotide level one hour after intravenous administration (radioimmunoassay); assay type: in vivo, human; conditions: 50 μg octreotide IV bolus, 13 patients with cirrhosis and portal hypertension
Text: Furthermore, we also studied the relationship between the mag- nitude and duration of response of octreotide on corrected wedged hepatic venous pressure (WHVP) and the circulatinglevels ofthe analogue after intravenous administration. Subcutaneous Administration of Octreotide Six patients (4 males and 2 females), receiving 50tg octreotide s.c. twice daily to prevent recurrent varieceal hemorrhage were studied 4 weeks after commencing treatment with the analogue. These patients were participating in a randomised controlled trial and had already undergone a baseline measurement of corrected wedged hepatic venous pressure (WHVP) prior to being commenced on octreotide (50 tg.sc.bd). […] One patient had severe (Child's C), 2 moderate (Child's B) and 3 mild (Child's A) liver dys- function. Following an overnight fast, blood samples were removed immediately prior to a subcutaneous injection of 50tg octreotide and then at 2 hourly intervals for the following 12 h. The blood samples were collected in hepari- nised bottles containing Trasylol, centrifuged at 0C, the plasma snap frozen and stored at -20C for subsequent analysis of the octreo- tide levels. […] Thirteen patient with cirrhosis and portal hy- pertension admitted for a thorough investigation of the etiology and severity of their liver disease underwent measurements of their corrected wedged hepatic venous pressure (WHVP). […]

[2] = normal healthy volunteers; cited from earlier work
[3] = Pharmacokinetics of octreotide after subcutaneous injection (plasma radioimmunoassay); conditions: for AUC: AUC 2-12 h; for Cmax: 50 μg, Plasma octreotide levels, Peak;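 for all read-outs here: cirrhotic patients on twice-daily subcutaneous dosing for prevention of recurrent variceal bleeding, sampled four weeks into treatment, octreotide measured in plasma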
Text: Furthermore, we also studied the relationship between the mag- nitude and duration of response of octreotide on corrected wedged hepatic venous pressure (WHVP) and the circulatinglevels ofthe analogue after intravenous administration. Subcutaneous Administration of Octreotide Six patients (4 males and 2 females), receiving 50tg octreotide s.c. twice daily to prevent recurrent varieceal hemorrhage were studied 4 weeks after commencing treatment with the analogue. These patients were participating in a randomised controlled trial and had already undergone a baseline measurement of corrected wedged hepatic venous pressure (WHVP) prior to being commenced on octreotide (50 tg.sc.bd). […] One patient had severe (Child's C), 2 moderate (Child's B) and 3 mild (Child's A) liver dys- function. Following an overnight fast, blood samples were removed immediately prior to a subcutaneous injection of 50tg octreotide and then at 2 hourly intervals for the following 12 h. The blood samples were collected in hepari- nised bottles containing Trasylol, centrifuged at 0C, the plasma snap frozen and stored at -20C for subsequent analysis of the octreo- tide levels. […] Thirteen patient with cirrhosis and portal hy- pertension admitted for a thorough investigation of the etiology and severity of their liver disease underwent measurements of their corrected wedged hepatic venous pressure (WHVP). […] A 7F occlusion ballon Sidewinder catheter (Cordis Corporation, Miami, USA) was guided into a hepatic vein under fluoroscopic control. […] The right femoral artery was cannu- lated with a 7F Cordis cannula via a 8F Cordis introducer.

[4] = Patient 1, Child's grade A, 50 μg s.c.
[5] = Patient 2, Child's grade A, 50 μg s.c.
[6] = Patient 3, Child's grade A, 50 μg s.c.
[7] = Patient 4, Child's grade B, 50 μg s.c.
[8] = Patient 5, Child's grade B, 50 μg s.c.
[9] = Patient 6, Child's grade C, 50 μg s.c.

C[C@@H](O)[C@@H]1NC(=O)[C@H](CCCCN)NC(=O)[C@@H](Cc2c[nH]c3ccccc23)NC(=O)[C@H](Cc2ccccc2)NC(=O)[C@@H](NC(=O)[C@H](N)Cc2ccccc2)CSSC[C@@H](C(=O)N[C@H](CO)[C@@H](C)O)NC1=O [octreotide]
plasma octreotide level 1 h after administration [1]: 1944 pg/mL
level at 1 h ([1]; human, plasma, 50 ug): 1.94 ± 0.226 ng/mL
hepatic excretion [2]: 30-40%
clearance, overall ([3]; 50 μg s.c., six patients, mean ± SD): 3.04 L/h
Clearance [3, 4]: 4.775 L/h
K [3, 4]: 0.271 h⁻¹
Volume of distribution [3, 4]: 17.62 L
Clearance [3, 5]: 2.892 L/h
K [3, 5]: 0.251 h⁻¹
Volume of distribution [3, 5]: 11.51 L
Clearance [3, 6]: 3.021 L/h
K [3, 6]: 0.288 h⁻¹
Volume of distribution [3, 6]: 10.47 L
Clearance [3, 7]: 2.765 L/h
K [3, 7]: 0.172 h⁻¹
Volume of distribution [3, 7]: 16.07 L
Clearance [3, 8]: 2.704 L/h
K [3, 8]: 0.172 h⁻¹
Volume of distribution [3, 8]: 15.77 L
Clearance [3, 9]: 2.101 L/h
K [3, 9]: 0.142 h⁻¹
Volume of distribution [3, 9]: 14.82 L
Tmax ([3]; both, human, plasma, sc, 50 ug): 2 h
half-life ([3]; both, human, plasma, sc, 50 ug, circulating (plasma) half life, range, 50 μg octreotide s.c., range over 6 patients with cirrhosis and portal hypertension): 2.4 to 4.79 h
half-life ([3]; both, human, plasma, sc, 50 ug, plasma half-life, overall, 50 μg s.c., six patients, mean ± SD): 3.44 h
AUC ([3]; human, plasma, sc, 50 ug, Patient 1, Child's grade A, 50 μg s.c.): 10.5 ng·h/mL
AUC ([3]; human, plasma, sc, 50 ug, Patient 2, Child's grade A, 50 μg s.c.): 17.2 ng·h/mL
AUC ([3]; human, plasma, sc, 50 ug, Patient 3, Child's grade A, 50 μg s.c.): 16.6 ng·h/mL
AUC ([3]; human, plasma, sc, 50 ug, Patient 4, Child's grade B, 50 μg s.c.): 18.1 ng·h/mL
AUC ([3]; human, plasma, sc, 50 ug, Patient 5, Child's grade B, 50 μg s.c.): 18.5 ng·h/mL
AUC ([3]; human, plasma, sc, 50 ug, Patient 6, Child's grade C, 50 μg s.c.): 23.8 ng·h/mL
Cmax ([3]; human, plasma, sc, Patient 1, Child's grade A, 50 μg s.c.): 2.59 ng/mL
Cmax ([3]; human, plasma, sc, Patient 2, Child's grade A, 50 μg s.c.): 2.2 ng/mL
Cmax ([3]; human, plasma, sc, Patient 3, Child's grade A, 50 μg s.c.): 2.09 ng/mL
Cmax ([3]; human, plasma, sc, Patient 4, Child's grade B, 50 μg s.c.): 2.94 ng/mL
Cmax ([3]; human, plasma, sc, Patient 5, Child's grade B, 50 μg s.c.): 3.28 ng/mL
Cmax ([3]; human, plasma, sc, Patient 6, Child's grade C, 50 μg s.c.): 3.51 ng/mL
half-life ([3]; human, plasma, sc, 50 ug, t1/2, Patient 1, Child's grade A, 50 μg s.c.): 2.4 h
half-life ([3]; human, plasma, sc, 50 ug, t1/2, Patient 2, Child's grade A, 50 μg s.c.): 2.76 h
half-life ([3]; human, plasma, sc, 50 ug, t1/2, Patient 3, Child's grade A, 50 μg s.c.): 2.56 h
half-life ([3]; human, plasma, sc, 50 ug, t1/2, Patient 4, Child's grade B, 50 μg s.c.): 4.03 h
half-life ([3]; human, plasma, sc, 50 ug, t1/2, Patient 5, Child's grade B, 50 μg s.c.): 4.04 h
half-life ([3]; human, plasma, sc, 50 ug, t1/2, Patient 6, Child's grade C, 50 μg s.c.): 4.89 h
